Results reported in the NIST ThermoML archive (doi:10.1021/acs.jced.6b00178).

Test: xn = mol fraction of the nth substance listed
Conditions: 100 kPa, Liquid; for viscosity: Concentric cylinders viscometry; for mass density: Vibrating tube method

CCCCn1cc[n+](C)c1.N#CN=C=[N-] [1-butyl-3-methylimidazolium dicyanamide] + CCCC[n+]1ccn(C)c1.O=S(=O)([N-]S(=O)(=O)C(F)(F)F)C(F)(F)F
Conditions	mass density, x2 = 0 [kg/m3]	mass density, x2 = 0.251 [kg/m3]	mass density, x2 = 0.457 [kg/m3]	mass density, x2 = 0.749 [kg/m3]	viscosity, x2 = 0 [mPa·s]	viscosity, x2 = 0.251 [mPa·s]	viscosity, x2 = 0.457 [mPa·s]	viscosity, x2 = 0.749 [mPa·s]
283.15 K	1070	1194.3	1280.8	1381.8	58.35	72.33	82.5	95.81
288.15 K	1066.7	1190.5	1276.6	1377.2	45.91	56.47	64.11	73.99
293.15 K	1063.4	1186.7	1272.5	1372.7	36.83	44.98	50.83	58.31
298.15 K	1060.2	1183	1268.5	1368.1	30.08	36.45	41.02	46.82
303.15 K	1057	1179.3	1264.4	1363.6	24.94	30.02	33.66	38.18
308.15 K	1053.8	1175.7	1260.4	1359.2	20.98	25.08	28.01	31.61
313.15 K	1050.6	1172	1256.4	1354.7	17.86	21.22	23.6	26.5
318.15 K	1047.5	1168.4	1252.4	1350.3	15.38	18.16	20.12	22.48
323.15 K	1044.4	1164.9	1248.5	1345.9	13.38	15.7	17.33	19.27
328.15 K	1041.3	1161.3	1244.6	1341.5	11.74	13.69	15.06	16.68
333.15 K	1038.2	1157.8	1240.7	1337.2	10.38	12.05	13.27	14.56
338.15 K	1035.2	1154.3	1236.8	1332.9	9.251	10.68	11.72	12.82
343.15 K	1032.1	1150.8	1233	1328.6	8.298	9.53	10.43	11.36
348.15 K	1029.1	1147.3	1229.2	1324.3	7.488	8.56	9.335	10.14
353.15 K	1026.1	1143.8	1225.4	1320	6.794	7.728	8.408	9.098
358.15 K	1023.2	1140.4	1221.6	1315.8	6.196	7.016	7.615	8.211
363.15 K	1020.3	1137	1217.9	1311.6	5.677	6.403	6.932	7.449
